Reference: ChEMBL document CHEMBL5137069, “Discovery of Potent and Orally Bioavailable Pyridine N-Oxide-Based Factor XIa Inhibitors through Exploiting Nonclassical Interactions” (J Med Chem, 2022)
Converted amounts (≈) assume the structure as drawn.

Legend:
[1] = Stability in human liver microsomes assessed as half-life; type: ADME, Microsome
[2] = Stability in rat liver microsomes assessed as half-life; type: ADME, Microsome
[3] = Oral bioavailability in Sprague-Dawley rat at 10 mg/kg administered as PEG-400/water/EtOH (7:2:1) formulation; type: ADME, organism-based; details: in vivo
[4] = Oral bioavailability in Sprague-Dawley rat at 10 mg/kg administered as 20% HPbCD formulation; type: ADME, organism-based; details: in vivo
[5] = Oral Bioavailability in Sprague-Dawley rat at 10 mg/kg; type: ADME, organism-based; details: in vivo
[6] = Half-life in Sprague-Dawley rat at 10 mg/kg, po and 2 mg/kg, iv; type: ADME, organism-based; details: in vivo
[7] = Hal-life in Beagle dog at 5 mg/kg, po and 1 mg/kg, iv; type: ADME, organism-based, Canis lupus familiaris; details: in vivo
[8] = Half-life in Cynomolgus monkey at 5 mg/kg, po and 1 mg/kg, iv; type: ADME, organism-based, Macaca fascicularis; details: in vivo
[9] = Volume of distribution at steady state in Sprague-Dawley rat at 10 mg/kg, po and 2 mg/kg, iv; type: ADME, organism-based; details: in vivo
[10] = Volume of distribution at steady state in Beagle dog at 5 mg/kg, po and 1 mg/kg, iv; type: ADME, organism-based, Canis lupus familiaris; details: in vivo
[11] = Volume of distribution at steady state in Cynomolgus monkey at 5 mg/kg, po and 1 mg/kg, iv; type: ADME, organism-based, Macaca fascicularis; details: in vivo
[12] = Oral bioavailability in Beagle dog at 5 mg/kg; type: ADME, organism-based, Canis lupus familiaris; details: in vivo
[13] = Oral bioavailability in Cynomolgus monkey at 5 mg/kg; type: ADME, organism-based, Macaca fascicularis; details: in vivo
[14] = AUC in Sprague-Dawley rat at 2 mg/kg, iv; type: ADME, organism-based; set-up: dose 2 mg/kg, route iv; details: in vivo
[15] = AUC in Beagle dog at 1 mg/kg, iv; type: ADME, organism-based, Canis lupus familiaris; set-up: dose 1 mg/kg, route iv; details: in vivo
[16] = AUC in Cynomolgus monkey at 1 mg/kg, iv; type: ADME, organism-based, Macaca fascicularis; set-up: dose 1 mg/kg, route iv; details: in vivo
[17] = AUC in Sprague-Dawley rat at 10 mg/kg, po; type: ADME, organism-based; set-up: dose 10 mg/kg, route po; details: in vivo
[18] = AUC in Beagle dog at 5 mg/kg, po; type: ADME, organism-based, Canis lupus familiaris; set-up: dose 5 mg/kg, route po; details: in vivo
[19] = AUC in Cynomolgus monkey at 5 mg/kg, po; type: ADME, organism-based, Macaca fascicularis; set-up: dose 5 mg/kg, route po; details: in vivo
[20] = Clearance in Sprague-Dawley rat assessed as liver blood flow at 10 mg/kg, po and 2 mg/kg, iv; type: ADME, organism-based; details: in vivo
[21] = Clearance in Beagle dog assessed as liver blood flow at 5 mg/kg, po and 1 mg/kg, iv; type: ADME, organism-based, Canis lupus familiaris; details: in vivo
[22] = Clearance in Cynomolgus monkey assessed as liver blood flow at 5 mg/kg, po and 1 mg/kg, iv; type: ADME, organism-based, Macaca fascicularis; details: in vivo
[23] = Equilibrium solubility of compound at pH 1.2 by HPLC analysis; type: physicochemical; details: buffer
[24] = Equilibrium solubility of compound at pH 6.8 by HPLC analysis; type: physicochemical; details: buffer
[25] = Drug concentration in plasma of anesthetized New Zealand White rabbit model of AV shunt-induced thrombosis at […], administered as iv bolus dose and subsequently followed by 0.8 mg/kg/hr as iv infusion from 20 min prior to 40 min after establishment of AV shunt by LC-MS/MS analysis; type: ADME, organism-based, Oryctolagus cuniculus; details: time 60 min
[26] = Drug concentration in plasma of anesthetized New Zealand White rabbit model of AV shunt-induced thrombosis at 8.5 mg/kg, administered as iv bolus dose and subsequently followed by 10 mg/kg/hr as iv infusion from 20 min prior to 40 min after establishment of AV shunt by LC-MS/MS analysis; type: ADME, organism-based, Oryctolagus cuniculus; details: time 60 min

Work on Cn1nncc1-c1cnn([C@H](Cc2ccc(F)cc2)c2ccc(-c3c(-n4cnnn4)ccc(Cl)c3F)c[n+]2[O-])c1 yielded a half-life [1] of over 3.08 h and a half-life [2] of 0.8 h.
With Cn1nncc1-c1cnn([C@H](Cc2ccc(F)cc2)c2ccc(-c3c(-n4cc(Cl)nn4)ccc(Cl)c3F)c[n+]2[O-])c1 the half-life [1] was 1.47 h and the half-life [2] was 1.28 h.
Cn1nncc1-c1cnn([C@H](Cn2cc(F)cn2)c2ccc(-c3c(-n4cc(Cl)nn4)ccc(Cl)c3F)c[n+]2[O-])c1 showed a half-life [1] of over 3.08 h and a half-life [2] of 1.47 h.
With Cn1nncc1-c1cnn([C@H](CC2CC2)c2ccc(-c3c(-n4cnnn4)ccc(Cl)c3F)c[n+]2[O-])c1 the half-life [1] was over 3 h and the half-life [2] was over 3 h.
Molecule [O-][n+]1cc(-c2c(-n3cnnn3)ccc(Cl)c2F)ccc1C(CC1CC1)n1cc(-c2cncs2)cn1 (racemic) has a half-life [1] of 0.05 h and a half-life [2] of 0.117 h.
Molecule Cn1nncc1-c1cnn([C@H](CCOC(F)F)c2ccc(-c3c(-n4cc(C(F)(F)F)nn4)ccc(Cl)c3F)c[n+]2[O-])c1 has a half-life [1] of over 3.08 h and a half-life [2] of 2.42 h.
For Cn1cncc1-c1cnn([C@H](CC2CC2)c2ccc(-c3c(-n4cnnn4)ccc(Cl)c3F)c[n+]2[O-])c1, the half-life [1] was 0.6 h and the half-life [2] was 1.07 h.
Molecule Nc1ccc(-c2cnn(C(CC3CC3)c3ccc(-c4c(-n5cnnn5)ccc(Cl)c4F)c[n+]3[O-])c2)c(F)n1 (racemic) has a half-life [1] of over 3 h and a half-life [2] of over 3 h.
Work on [O-][n+]1cc(-c2c(-n3cnnn3)ccc(Cl)c2F)ccc1C(CC1CC1)n1cc(-c2c(F)cncc2Cl)cn1 (racemic) yielded a half-life [1] of 0.0333 h and a half-life [2] of 0.0333 h.
In the case of COC(=O)Nc1ccc(-c2cnn([C@H](CC3CC3)c3ccc(-c4c(-n5cnnn5)ccc(Cl)c4F)c[n+]3[O-])c2)cc1, the bioavailability [3] was 59.6%.
Work on Cn1nncc1-c1cnn([C@H](Cc2ccn(C(F)F)n2)c2ccc(-c3c(-n4cc(C(F)(F)F)nn4)ccc(Cl)c3F)c[n+]2[O-])c1 yielded a half-life [1] of over 3.08 h and a half-life [2] of 2.33 h.
Molecule Cn1nncc1-c1cnn([C@H](CCOC(F)F)c2ccc(-c3c(-n4cnnn4)ccc(Cl)c3F)c[n+]2[O-])c1 has a half-life [1] of over 3.08 h and a half-life [2] of over 3.08 h.
COC(=O)Nc1ccc(-c2cnn(C(CC3CC3)c3ccc(-c4cc(Cl)ccc4-n4cnnn4)c[n+]3[O-])c2)cc1 (racemic) gave a bioavailability [4] of 37.3%.
In the case of Cc1nc(N)ccc1-c1cnn(C(CC2CC2)c2ccc(-c3c(-n4cnnn4)ccc(Cl)c3F)c[n+]2[O-])c1 (racemic), the half-life [1] was 1.67 h and the half-life [2] was 1.8 h.
Cn1nncc1-c1cnn([C@H](CCOC(F)F)c2ccc(-c3c(-n4cc(Cl)nn4)ccc(Cl)c3F)c[n+]2[O-])c1 gave a bioavailability [5] of 36.4%, a half-life [1] of over 3.08 h and a half-life [2] of over 3.08 h. It also gave a half-life [6] of 1.4 h, a half-life [7] of 2 h and a half-life [8] of 1 h. The Vdss [9] was 0.8 L/kg, the Vdss [10] was 1.5 L/kg and the Vdss [11] was 1.5 L/kg. The bioavailability [12] was 80.5%, the bioavailability [13] was 43% and the AUC [14] was 5.5 µM·h. It also gave an AUC [15] of 3.7 µM·h, an AUC [16] of 1.1 µM·h and an AUC [17] of 10 µM·h. For the same molecule, the AUC [18] was 14.7 µM·h, the AUC [19] was 2.5 µM·h and the LBF [20] was 12%. For the same molecule, the LBF [21] was 25%, the LBF [22] was 58% and the solubility thermodynamic [23] was 81 µM (≈ 47 µg/mL). The solubility thermodynamic [24] was 172 µM (≈ 99.6 µg/mL), the concentration at 1 h [25] was 1.08 µM and the concentration at 1 h [26] was 7.5 µM.
With COCC[C@H](c1ccc(-c2c(-n3cnnn3)ccc(Cl)c2F)c[n+]1[O-])n1cc(-c2cnnn2C)cn1 the half-life [1] was 2.83 h and the half-life [2] was 0.833 h.
Molecule COCC[C@H](c1ccc(-c2c(-n3cc(Cl)nn3)ccc(Cl)c2F)c[n+]1[O-])n1cc(-c2cnnn2C)cn1 has a half-life [1] of 0.9 h and a half-life [2] of 0.783 h.
Molecule Cn1nccc1-c1cnn(C(CC2CC2)c2ccc(-c3c(-n4cnnn4)ccc(Cl)c3F)c[n+]2[O-])c1 (racemic) has a half-life [1] of 0.267 h and a half-life [2] of 0.45 h.
Molecule Cc1ncsc1-c1cnn(C(CC2CC2)c2ccc(-c3c(-n4cnnn4)ccc(Cl)c3F)c[n+]2[O-])c1 (racemic) has a half-life [1] of 0.183 h and a half-life [2] of 0.3 h.
